From ChEMBL document CHEMBL4346660, “Cryptolepine and aromathecin based mimics as potent G-quadruplex-binding, DNA-cleavage and anticancer agents: Design, synthesis and DNA targeting-induced apoptosis” (Eur J Med Chem, 2019)
Calls of active or inactive are those of the source. No cut-off for these calls is given here.

Assays:
[1] = system: MGC-803; assay: Induction of apoptosis in human MGC803 cells assessed as nuclear condensation at 2.5 uM after 24 hrs by Hoechst 33258 staining-based fluorescence microscopic method; type: functional, cell-based
[2] = system: MGC-803; assay: Induction of apoptosis in human MGC803 cells assessed as decrease in Bcl-2 expression at 0.5 to 2.5 uM after 24 hrs by Western blot analysis; type: functional, cell-based
[3] = system: T-24; assay: Antiproliferative activity against human T24 cells assessed as reduction in cell viability incubated for 48 hrs by MTT assay; type: functional, cell-based; conditions: T-24, 48 h
[4] = system: MGC-803; assay: Cell cycle arrest in human MGC803 cells assessed as accumulation of cells at S phase at 2.5 uM incubated for 48 hrs by propidium iodide staining based flow cytometry (reference value: 32.97%); type: functional
[5] = system: MGC-803; assay: Cell cycle arrest in human MGC803 cells assessed as accumulation of cells at G2/M phase at 1 uM incubated for 48 hrs by propidium iodide staining-based flow cytometry (reference value: 13.07%); type: functional
[6] = system: Quadruplex DNA; assay: Binding affinity to human c-Kit-1 G-quadruplex DNA at 10 uM incubated for 5 mins by CD spectroscopy; type: nucleic-acid assay
[7] = system: MGC-803; assay: Induction of apoptosis in human MGC803 cells assessed as late apoptotic cells at 2.5 uM incubated for 24 hrs by Annexin V-FITC/propidium iodide staining based flow cytometry (reference value: 0.69 +/- 0.05 %); type: functional

With `CN(C)CCCNc1c2c(nc3ccc(F)cc13)-c1ccccc1C2` as the compound, how does the Activity [1] read?
The Activity was “Active”.

And the Activity [2]?
Its Activity is “Active”.

And the IC50 [3]?
The IC50 was 840 nM.

What about the Activity [4] of the same compound?
Its Activity is 59.44%.

And the Activity [5]?
The Activity was 23.02%.

What about the Activity [6] of the same compound?
Its Activity is “Active”.

And the Activity [7]?
Its Activity is 7.45%.
